We go through 18 compounds from patent publication US12247032B2, “Substituted pyrazolo[1,5-a]pyrimidines as inhibitors of JAK kinases” (Genentech, Inc., priority 2019, dated 2025).

Experiment [1] concerns JAK1 (IL-13-stimulated STAT6 phosphorylation in BEAS-2B cells). Nature of the experiment: P-STAT6 BEAS-2B+IL-13 cell assay. Type of experiment: cell-based, human. Particulars: 1 hour compound, IL-13 15 minutes, IC50 by four-parameter fit, read-out: Cellular JAK1 PSTAT6 BEAS2B + IL13. An outline of the steps:
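BEAS-2B human bronchial epithelial cells preincubated 1 h at 37 °C with compound, then stimulated with human recombinant IL-13 for 15 min. Phospho-STAT6 (Tyr641) in lysates measured by MSD electrochemiluminescence immunoassay; IC50 from a four-parameter logistic fit of percent of control.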

Experiment [2] concerns JAK1 pathway (P-STAT6 in TF-1 human erythroleukemia cells + IL-13). The experiment can be described thus: P-STAT6 TF-1+Interleukin-13 (IL-13) assay. Particulars: TF-1 cells, 30 minutes compound, IL-13 10 minutes, IC50 by four-parameter fit, read-out: Cellular PSTAT6 TF-1 + IL13. Format: cell-based. As to the method: TF-1 human erythroleukemia cells (ATCC®; Manassas, VA; Catalog No. CRL-2003™) were grown in Roswell Park Memorial Institute (RPMI) medium supplemented with 10% heat-inactivated fetal bovine serum (FBS), 2 ng/mL granulocyte-macrophage colony-stimulating factor, 1× non-essential amino acids (NEAA), and 1 mM sodium pyruvate. The day before the assay, the cultures were transferred to Opti-MEM™, 1×NEAA, 1 mM sodium pyruvate, and 0.5% charcoal-stripped FBS (starve medium). Inhibitor stock solutions (5 mM in DMSO) were serially diluted 1:2 in DMSO to generate a 10-point concentration titration (at 500× test concentration), which was further diluted by a 50-fold dilution in Assay Medium (RPMI containing 1×NEAA and 1 mM sodium pyruvate) to generate a 10× concentration titration (in 2% DMSO). The cells (300,000 cells/well in 35 μL of Assay Medium) were seeded in 384-well Greiner plates. Diluted inhibitor at 10× concentration (5 μL) was added to the cells and the plates were incubated for 30 minutes at 37° C. in a humidified incubator. Cells were stimulated with the human recombinant cytokine at the respective EC90 concentrations, as previously determined for each individual lot. For the phosphorylated signal transducer and activator of transcription 6 (P-STAT6) TF-1+Interleukin-13 (IL-13) assay, 10 μL of 250 ng/mL IL-13 (R&D Systems; Minneapolis, MN) was added to the cells, which were then incubated for 10 minutes at 37° C. For the P-STAT5 TF-1+Erythropoietin (EPO) assay, 10 μL of 110 IU/mL EPO (Gibco Life Technologies, Catalog No. PHC2054) was added to the cells, which were then incubated for 30 min at 37° C. For both assays, the incubation was followed by addition to the cells of 5 μL of ice-cold 10× cell lysis buffer (Cell Signaling Technologies; Danvers, MA; Catalog No. 9803S) containing 1 mM phenylmethylsulfonyl fluoride (PMSF). Assay plates were frozen at −80° C. for a minimum of 1 hour. In the IL-13 assay, P-STAT6 was measured by coating goat anti-rabbit (GAR) plates (Meso Scale Discovery [MSD]; Rockville, MD; Catalog No. MSD L21RA-1) with rabbit anti-human total STAT6 antibody (Cell Signaling Technologies; Catalog No. 9362S), incubating the cell lysates in the coated plates overnight at 4° C., and then detecting with mouse anti-P-STAT6 (Tyr641) Clone 16E12 antibody (MilliporeSigma; Burlington, MA; Catalog No. 05-590, custom labeled by MSD with SULFO-tag) using standard MSD plate processing, washing, and detection protocols. In the EPO assay, P-STAT5 was detected using the phospho-STAT5a,b Whole Cell Lysate Kit (MSD; Catalog No. K150IGD-1). The electrochemiluminescence (ECL) signal of wells was read on the MESO SECTOR S600 (MSD) reader.
Data analysis was performed by subtracting the negative control (cytokine stimulated and 20 μM control inhibitor-treated cells) mean ECL value from the ECL value of all wells, determining percent of control for test compound well ECL values relative to the positive control (cytokine stimulated and DMSO-treated cells) mean ECL value, and determining the IC50 for test compounds with a four-parameter logistic fit model as shown in Equation 4.

Each structure is given as a SMILES string. Where two headings read alike, the source gives them in different places.

As for `O=C(Nc1cn(Cc2nnn(C3CCNC3)n2)nc1-c1cc(OC(F)F)ccc1OC(F)F)c1cnn2cccnc12` (single isomer, unassigned) [Example 27, N-[3-[2,5-bis(difluoromethoxy)phenyl]-1-[(2-pyrrolidin-3-yltetrazol-5-yl)methyl]pyrazol-4-yl]pyrazolo[1,5-a]pyrimidine-3-carboxamide], the IC50 is 12 nM in experiment [1] (Homo sapiens, BEAS-2B, 1 h) and 13 nM in experiment [2] (Homo sapiens, TF-1, 0.5 h).
As to `O=C(Nc1cn(Cc2nnn(C3CCNC3)n2)nc1-c1cc(OC(F)F)ccc1OC(F)F)c1cnn2cccnc12` (single isomer, unassigned) [Example 28, N-[3-[2,5-bis(difluoromethoxy)phenyl]-1-[(2-pyrrolidin-3-yltetrazol-5-yl)methyl]pyrazol-4-yl]pyrazolo[1,5-a]pyrimidine-3-carboxamide], the results for the IC50 in experiment [1] and in experiment [2] were 12 nM and 7.1 nM, respectively.
For the compound `CN1CCC(N2CC(n3nnc(Cn4cc(NC(=O)c5cnn6cccnc56)c(-c5cc(OC(F)F)ccc5OC(F)F)n4)n3)C2)C1` (single isomer, unassigned) [Example 72, N-[3-[2,5-bis(difluoromethoxy)phenyl]-1-[[2-[1-(1-methylpyrrolidin-3-yl)azetidin-3-yl]tetrazol-5-yl]methyl]pyrazol-4-yl]pyrazolo[1,5-a]pyrimidine-3-carboxamide], the IC50 in experiment [1] (Homo sapiens, BEAS-2B, 1 h) is 36 nM; in experiment [2] (Homo sapiens, TF-1, 0.5 h), 39 nM.
On to `CN1CC(n2nnc(Cn3cc(NC(=O)c4cnn5cccnc45)c(-c4cc(Cl)ccc4OC(F)F)n3)n2)C1` [Example 7, N-[3-[5-chloro-2-(difluoromethoxy)phenyl]-1-[[2-(1-methylazetidin-3-yl)tetrazol-5-yl]methyl]pyrazol-4-yl]pyrazolo[1,5-a]pyrimidine-3-carboxamide], for which the IC50 was 9.8 nM in experiment [1] (Homo sapiens, BEAS-2B, 1 h) and 5 nM in experiment [2] (Homo sapiens, TF-1, 0.5 h).
On to `O=C(Nc1cn(Cc2nnn(C3CNC3)n2)nc1-c1cc(Cl)ccc1OC(F)F)c1cnn2cccnc12` [Example 8, N-[1-[[2-(azetidin-3-yl)tetrazol-5-yl]methyl]-3-[5-chloro-2-(difluoromethoxy)phenyl]pyrazol-4-yl]pyrazolo[1,5-a]pyrimidine-3-carboxamide], for which the IC50 in experiment [1] (Homo sapiens, BEAS-2B, 1 h) was 9.3 nM; in experiment [2] (Homo sapiens, TF-1, 0.5 h), 8.4 nM.
On to `CN1CC(n2nnc(Cn3cc(NC(=O)c4cnn5cccnc45)c(-c4cc(OC(F)F)ccc4OC(F)F)n3)n2)C1` [Example 10, N-[3-[2,5-bis(difluoromethoxy)phenyl]-1-[[2-(1-methylazetidin-3-yl)tetrazol-5-yl]methyl]pyrazol-4-yl]pyrazolo[1,5-a]pyrimidine-3-carboxamide], for which the IC50 is 17 nM in experiment [1] (Homo sapiens, BEAS-2B, 1 h) and 4 nM in experiment [2] (Homo sapiens, TF-1, 0.5 h).
In the case of `O=C(Nc1cn(Cc2nnn(C3CNC3)n2)nc1-c1cc(OC(F)F)ccc1OC(F)F)c1cnn2cccnc12` [Example 11, N-[1-[[2-(azetidin-3-yl)tetrazol-5-yl]methyl]-3-[2,5-bis(difluoromethoxy)phenyl]pyrazol-4-yl]pyrazolo[1,5-a]pyrimidine-3-carboxamide], the IC50 stood at 23 nM in experiment [1] (Homo sapiens, BEAS-2B, 1 h) and 9.5 nM in experiment [2] (Homo sapiens, TF-1, 0.5 h).
On to `O=C(Nc1cn(Cc2nnnn2C2CNC2)nc1-c1cc(OC(F)F)ccc1OC(F)F)c1cnn2cccnc12` [Example 12, N-[1-[[1-(azetidin-3-yl)tetrazol-5-yl]methyl]-3-[2,5-bis(difluoromethoxy)phenyl]pyrazol-4-yl]pyrazolo[1,5-a]pyrimidine-3-carboxamide], for which the IC50 in experiment [1] (Homo sapiens, BEAS-2B, 1 h) is 31 nM; in experiment [2] (Homo sapiens, TF-1, 0.5 h) it was 22 nM.
Regarding `NCCn1nnc(Cn2cc(NC(=O)c3cnn4cccnc34)c(-c3cc(OC(F)F)ccc3OC(F)F)n2)n1` [Example 13, N-[1-[[2-(2-aminoethyl)tetrazol-5-yl]methyl]-3-[2,5-bis(difluoromethoxy)phenyl]pyrazol-4-yl]pyrazolo[1,5-a]pyrimidine-3-carboxamide], the IC50 came out at 11 nM in experiment [1] (Homo sapiens, BEAS-2B, 1 h) and 18 nM in experiment [2] (Homo sapiens, TF-1, 0.5 h).
For the compound `NCCn1nnnc1Cn1cc(NC(=O)c2cnn3cccnc23)c(-c2cc(OC(F)F)ccc2OC(F)F)n1` [Example 14, N-[1-[[1-(2-aminoethyl)tetrazol-5-yl]methyl]-3-[2,5-bis(difluoromethoxy)phenyl]pyrazol-4-yl]pyrazolo[1,5-a]pyrimidine-3-carboxamide], the IC50 in experiment [1] (Homo sapiens, BEAS-2B, 1 h) turned out to be 39 nM; in experiment [2] (Homo sapiens, TF-1, 0.5 h), 45 nM.
As for `CN1CC(n2nnnc2Cn2cc(NC(=O)c3cnn4cccnc34)c(-c3cc(Cl)ccc3OC(F)F)n2)C1` [Example 15, N-[3-[5-chloro-2-(difluoromethoxy)phenyl]-1-[[1-(1-methylazetidin-3-yl)tetrazol-5-yl]methyl]pyrazol-4-yl]pyrazolo[1,5-a]pyrimidine-3-carboxamide], the IC50 is 8.6 nM in experiment [1] (Homo sapiens, BEAS-2B, 1 h) and 3.4 nM in experiment [2] (Homo sapiens, TF-1, 0.5 h).
`CN(C)CCn1nnc(Cn2cc(NC(=O)c3cnn4cccnc34)c(-c3cc(OC(F)F)ccc3OC(F)F)n2)n1` [Example 16, N-[3-[2,5-bis(difluoromethoxy)phenyl]-1-[[2-[2-(dimethylamino)ethyl]tetrazol-5-yl]methyl]pyrazol-4-yl]pyrazolo[1,5-a]pyrimidine-3-carboxamide]: the IC50 in experiment [1] (Homo sapiens, BEAS-2B, 1 h) is 18 nM; in experiment [2] (Homo sapiens, TF-1, 0.5 h) it was 12 nM.
Consider `CN(C)CCn1nnnc1Cn1cc(NC(=O)c2cnn3cccnc23)c(-c2cc(OC(F)F)ccc2OC(F)F)n1` [Example 17, N-[3-[2,5-bis(difluoromethoxy)phenyl]-1-[[1-[2-(dimethylamino)ethyl]tetrazol-5-yl]methyl]pyrazol-4-yl]pyrazolo[1,5-a]pyrimidine-3-carboxamide], for which the IC50 is 19 nM in experiment [1] (Homo sapiens, BEAS-2B, 1 h) and 2.7 nM in experiment [2] (Homo sapiens, TF-1, 0.5 h).
On to `O=C(Nc1cn(Cc2nnn(C3CCNCC3)n2)nc1-c1cc(OC(F)F)ccc1OC(F)F)c1cnn2cccnc12` [Example 18, N-[3-[2,5-bis(difluoromethoxy)phenyl]-1-[[2-(4-piperidyl)tetrazol-5-yl]methyl]pyrazol-4-yl]pyrazolo[1,5-a]pyrimidine-3-carboxamide], for which the IC50 in experiment [1] (Homo sapiens, BEAS-2B, 1 h) was found to be 35 nM; in experiment [2] (Homo sapiens, TF-1, 0.5 h), 20 nM.
Taken in the same sequence, the figures for `CNCCn1nnnc1Cn1cc(NC(=O)c2cnn3cccnc23)c(-c2cc(OC(F)F)ccc2OC(F)F)n1` [Example 19, N-[3-[2,5-bis(difluoromethoxy)phenyl]-1-[[1-[2-(methylamino)ethyl]tetrazol-5-yl]methyl]pyrazol-4-yl]pyrazolo[1,5-a]pyrimidine-3-carboxamide] were 21 nM and 7 nM.
For the compound `CNCCn1nnc(Cn2cc(NC(=O)c3cnn4cccnc34)c(-c3cc(OC(F)F)ccc3OC(F)F)n2)n1` [Example 20, N-[3-[2,5-bis(difluoromethoxy)phenyl]-1-[[2-[2-(methylamino)ethyl]tetrazol-5-yl]methyl]pyrazol-4-yl]pyrazolo[1,5-a]pyrimidine-3-carboxamide], the IC50 in experiment [1] (Homo sapiens, BEAS-2B, 1 h) was 30 nM; in experiment [2] (Homo sapiens, TF-1, 0.5 h), 45 nM.
`CN(C)CCN1CC(n2nnc(Cn3cc(NC(=O)c4cnn5cccnc45)c(-c4cc(OC(F)F)ccc4OC(F)F)n3)n2)C1` [Example 21, N-[3-[2,5-bis(difluoromethoxy)phenyl]-1-[[2-[1-[2-(dimethylamino)ethyl]azetidin-3-yl]tetrazol-5-yl]methyl]pyrazol-4-yl]pyrazolo[1,5-a]pyrimidine-3-carboxamide]: the IC50 in experiment [1] (Homo sapiens, BEAS-2B, 1 h) came out at 15 nM; in experiment [2] (Homo sapiens, TF-1, 0.5 h), 40 nM.
For `CN1CCC(n2nnc(Cn3cc(NC(=O)c4cnn5cccnc45)c(-c4cc(OC(F)F)ccc4OC(F)F)n3)n2)CC1` [Example 22], the IC50 amounted to 19 nM in experiment [1] (Homo sapiens, BEAS-2B, 1 h) and 4.8 nM in experiment [2] (Homo sapiens, TF-1, 0.5 h).
